Experimental data reported in PubChem BioAssay (NCI).
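Assay format: 96-well plates, 48-hour exposure. Here, GI50 denotes the concentration required for 50% inhibition of growth. TGI is the concentration that stops growth completely.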

Tests used:
Test in all cases: NCI anticancer screen, dose series, 48 h
CCRF-CEM leukemia = test system: CCRF-CEM leukemia
DU-145 prostate = test system: DU-145 prostate
HCT-15 colon = test system: HCT-15 colon
HT29 colon = test system: HT29 colon
MCF7 breast = test system: MCF7 breast
NCI-H226 lung = test system: NCI-H226 lung
NCI-H460 lung = test system: NCI-H460 lung
SNB-19 CNS = test system: SNB-19 CNS
SR leukemia = test system: SR leukemia
TK-10 renal = test system: TK-10 renal
UO-31 renal = test system: UO-31 renal
HCC-2998 colon = test system: HCC-2998 colon
HS 578T breast = test system: HS 578T breast

Row | SMILES | TGI (CCRF-CEM leukemia) | TGI (DU-145 prostate) | TGI (HCT-15 colon) | TGI (HT29 colon) | TGI (MCF7 breast) | TGI (NCI-H226 lung) | TGI (NCI-H460 lung) | TGI (SNB-19 CNS) | TGI (SR leukemia) | TGI (TK-10 renal) | TGI (UO-31 renal) | TGI (HCC-2998 colon) | TGI (HS 578T breast) | GI50 (HT29 colon) | GI50 (SR leukemia)
1 | CC12C3C4C1C1C2C3C41CO (stereo not drawn) | > 100 µM | > 100 µM | > 100 µM | > 100 µM | > 100 µM | > 100 µM | > 100 µM | > 100 µM | > 100 µM | > 100 µM | > 100 µM |  |  |  | 
2 | COc1cc(C)c(/C=C2/N=C(c3ccccc3)OC2=O)c([N+](=O)[O-])c1OC | > 100 µM | > 100 µM | > 100 µM | > 100 µM | > 100 µM | > 100 µM | > 100 µM | > 100 µM |  | > 100 µM |  | > 100 µM |  |  | 
3 | O=C(Nc1ccc(Cl)cc1C(F)(F)F)C(=O)C1CCCS1(=O)=O (stereo not drawn) | > 100 µM |  | > 100 µM | > 100 µM |  | > 100 µM | > 100 µM | > 100 µM | > 100 µM | > 100 µM |  | > 100 µM |  |  | 
4 | Cc1c[n+]2c3ccccc3c3ccccc3c2s1 | 28.4 µM |  | > 100 µM | > 100 µM |  | 3.89 µM | 25.5 µM | 15.6 µM | 32.3 µM | > 70.9 µM | 14.5 µM | 13.7 µM |  |  | 
5 | N#CCc1c(-c2ccccc2)n(S(=O)(=O)c2ccccc2)c2ccccc12 | > 100 µM |  | > 100 µM | > 100 µM |  | > 100 µM | > 100 µM | > 100 µM | > 100 µM | > 100 µM | > 100 µM | > 100 µM |  |  | 
6 | CCOC(=O)CC1COc2ccc3c(c21)OCO3 (stereo not drawn) | > 100 µM |  | > 100 µM | > 100 µM |  | > 100 µM | > 100 µM | > 100 µM | > 100 µM | > 100 µM | > 100 µM | > 100 µM |  |  | 
7 | COc1ccc(/C=C/C(=O)/C=C/c2ccc(OC)cc2OC)c(OC)c1 | 13.5 µM | 35.3 µM | 20 µM | 12.7 µM |  | 37.6 µM | 24 µM | 82.8 µM | 13.1 µM | 47.3 µM | 41.3 µM | 13.3 µM | > 100 µM |  | 
8 | COc1cc2c3cc1Oc1c(O)c(OC)cc4c1C(Cc1ccc(O)c(c1)Oc1ccc(cc1)CC3N(C)CC2)N(C)CC4 (stereo not drawn) | 36.7 µM |  | 23.8 µM | 18.9 µM |  | 38.3 µM | 28.4 µM | 68 µM |  | 18.2 µM | 29.3 µM | 13.6 µM |  |  | 
9 | S=C(NCCc1ccccn1)N/N=C/c1ccccn1 | < 0.01 µM | > 100 µM | > 100 µM | > 100 µM |  | 0.986 µM | 4.66 µM | > 100 µM | < 0.0182 µM | > 100 µM | > 49.1 µM | > 100 µM | > 100 µM |  | 
10 | CC1(C)[C@@H]2C[C@H]1[C@@H](Cc1cccc(C[C@H]3c4cc(-c5ccccn5)ncc4[C@H]4C[C@@H]3C4(C)C)c1)c1cc(-c3ccccn3)ncc12 | > 100 µM | > 24.7 µM | > 100 µM | > 100 µM | > 100 µM | > 91.2 µM | > 33.4 µM | > 72.6 µM | > 100 µM | > 100 µM | 8.82 µM | > 100 µM |  | 12.5 µM | > 100 µM
11 | C=CCNC(=S)N1CC(C)C(=O)Nc2cc(Cl)ccc21 (stereo not drawn) |  |  | > 100 µM | > 100 µM |  | > 100 µM | > 100 µM | > 100 µM | > 100 µM | > 100 µM | > 100 µM |  |  |  | 
12 | COC(=O)c1c(C(=O)OC)c2ccccn2c1-c1cc(OC)c(Br)c(=O)o1 | > 100 µM | > 100 µM | > 100 µM | > 100 µM |  | > 100 µM | > 100 µM | > 100 µM | > 100 µM | > 100 µM | > 100 µM | > 100 µM | > 100 µM |  | 
13 | O=C(O)/C(Cl)=C(\Cl)C(=O)c1ccccc1 | > 100 µM |  | > 100 µM | > 100 µM |  | > 100 µM | > 100 µM | > 100 µM | > 100 µM | > 100 µM | > 100 µM | > 100 µM |  |  | 
14 | CCC(C)C(N)C(=O)NC(CC(N)=O)C(=O)NC(CC(C)C)C(=O)NC(CCCCN)C(=O)NC(C)C(=O)NC(CC(C)C)C(=O)NC(C)C(=O)NC(C)C(=O)NC(CC(C)C)C(=O)NC(C)C(=O)NC(CCCCN)C(=O)NC(CCCCN)C(=O)NC(C(=O)NC(CC(C)C)C(N)=O)C(C)CC (stereo not drawn) | 18.6 µM |  | 31.8 µM | 35.9 µM |  | 29 µM | 28.9 µM | 27.8 µM | 46.1 µM | 27.6 µM | 32.1 µM | > 56.3 µM |  |  | 
15 | C1CSCCSCCCSC2CCCCC2SC1 (stereo not drawn) | > 100 µM | > 100 µM | > 100 µM | 60.9 µM | > 100 µM |  | > 100 µM | > 100 µM | > 100 µM | > 100 µM | > 100 µM | > 100 µM |  |  | 
